# Values of other authors in patent US6444675B2, “4-alkyl and 4-cycloalkyl derivatives of dihydropyridine NPY antagonists” (Bristol-Myers Squibb Company, priority 2000, dated 2002).
# Experiments:
# [1] = molecular target: T1, I-125 labeled NPY and PYY in human neuroblastoma cells (Homo sapiens, UniProt P25929)
# T1 construct: displacing I-125 labeled NPY and PYY in human neuroblastoma cells; endogenous receptor
# T1 sequence (P25929 1-384): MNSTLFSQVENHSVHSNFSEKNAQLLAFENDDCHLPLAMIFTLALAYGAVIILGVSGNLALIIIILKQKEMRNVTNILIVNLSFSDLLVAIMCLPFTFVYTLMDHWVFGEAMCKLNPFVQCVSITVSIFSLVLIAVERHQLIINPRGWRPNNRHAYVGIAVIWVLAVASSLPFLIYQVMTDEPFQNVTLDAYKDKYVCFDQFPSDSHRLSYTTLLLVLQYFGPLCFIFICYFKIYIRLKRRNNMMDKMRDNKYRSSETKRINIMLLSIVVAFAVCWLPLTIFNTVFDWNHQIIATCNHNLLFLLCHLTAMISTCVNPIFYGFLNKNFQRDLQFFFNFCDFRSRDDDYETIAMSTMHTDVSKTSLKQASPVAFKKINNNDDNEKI
# [2] = test system: NPY-related increases in diastolic blood pressure; details: anesthetized guinea pig model
# [3] = test system: NPY-induced contractions in guinea pig basilar artery
# [4] = molecular target: T2, I-125 Bolton-Hunter labeled NPY in human neuroblastoma cells (SK-N-MC) (Homo sapiens, UniProt P25929)
# T2 construct: displaces I-125 Bolton-Hunter labeled NPY in human neuroblastoma cells (SK-N-MC); host or cells: SK-N-MC human neuroblastoma cells (endogenous receptor)
# T2 sequence (P25929 1-384): T1 sequence (P25929 1-384)
# [5] = test system: NPY-induced pressor response; details: pithed rat
# [6] = test system: NPY-induced increase in intracellular Ca++ in SK-N-MC cells
smiles,measurement,setting,value
CN(C)CC1CCC(CN=C(N)c2ccc(C[C@@H](NC(=O)[C@@H](Cc3ccccc3)NS(=O)(=O)c3ccc4ccccc4c3)C(=O)N3CCCC3)cc2)CC1 (stereo partly drawn) [SR 120819A],displacement of I-125 labeled NPY and PYY,[1],displacing
same,antagonism of NPY-related increases in diastolic blood pressure,[2],antagonized
"O=P(O)(O)OC1[C@H](OP(=O)(O)O)[C@H](O)C(O)[C@H](O)[C@H]1OP(=O)(O)O (stereo partly drawn) [D-Myo-inositol-1,2,6-triphosphate]",antagonism of NPY-induced contractions,[3],potent but non-competitive antagonist
NC(N)=NCCC[C@@H](NC(=O)C(c1ccccc1)c1ccccc1)C(=O)NCc1ccc(O)cc1 [BIBP 3226],displacement of I-125 Bolton-Hunter labeled NPY,[4],displaces
same,antagonism of NPY-induced pressor response,[5],antagonizing
same,antagonism of NPY-induced increase in intracellular Ca++,[6],antagonized
